From paper PMC11008770 (Nature structural & molecular biology, 2023)
Where two headings read alike, the source gives them in different places.

Tests used:
[1] = target: T1, AE1 (Homo sapiens, UniProt P02730); assay: Cellular bicarbonate uptake assay; format: cell-based
T1 sequence (P02730 1-911): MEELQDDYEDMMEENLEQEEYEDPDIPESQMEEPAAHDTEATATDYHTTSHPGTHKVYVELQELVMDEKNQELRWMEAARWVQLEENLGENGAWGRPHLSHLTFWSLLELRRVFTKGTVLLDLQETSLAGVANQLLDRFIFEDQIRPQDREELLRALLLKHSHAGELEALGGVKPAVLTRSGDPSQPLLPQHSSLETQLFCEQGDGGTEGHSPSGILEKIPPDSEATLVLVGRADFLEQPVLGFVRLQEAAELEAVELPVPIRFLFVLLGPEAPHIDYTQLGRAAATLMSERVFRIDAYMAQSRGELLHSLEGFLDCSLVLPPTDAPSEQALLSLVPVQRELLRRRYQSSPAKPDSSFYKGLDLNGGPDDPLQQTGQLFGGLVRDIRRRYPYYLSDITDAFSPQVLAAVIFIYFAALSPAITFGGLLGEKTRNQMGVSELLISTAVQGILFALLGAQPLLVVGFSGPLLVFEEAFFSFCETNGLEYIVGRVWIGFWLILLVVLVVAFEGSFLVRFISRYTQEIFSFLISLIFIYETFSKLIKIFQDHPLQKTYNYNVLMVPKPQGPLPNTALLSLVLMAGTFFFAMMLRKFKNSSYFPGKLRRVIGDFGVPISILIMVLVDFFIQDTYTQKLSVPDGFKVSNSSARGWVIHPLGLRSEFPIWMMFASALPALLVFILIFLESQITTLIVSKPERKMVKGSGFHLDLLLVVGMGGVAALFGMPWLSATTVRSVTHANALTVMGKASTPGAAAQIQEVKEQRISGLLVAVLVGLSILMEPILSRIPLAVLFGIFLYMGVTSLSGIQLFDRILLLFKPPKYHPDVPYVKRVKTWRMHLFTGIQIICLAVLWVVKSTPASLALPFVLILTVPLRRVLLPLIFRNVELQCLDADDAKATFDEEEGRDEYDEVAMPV

[2] = target: AE1; details: read-out: Kd of bicarbonate; NMR studies; cited from earlier work
[3] = target: AE1; details: read-out: Kd of bicarbonate; flux studies in erythrocytes; cited from earlier work

IC50 [1]	AE1 inhibition in cellular bicarbonate uptake, single dose ([1]; 50 μM throughout the experiment, n = 3)	SMILES	Kd [2]	Kd [3]
15 µM	statistically significant AE1 inhibition	O=C(O)c1cccnc1Nc1cccc(C(F)(F)F)c1 [NIF, Niflumic acid]		
		O=C(O)O [bicarbonate]	5400 µM	2000 µM
